Results taken from patent US4839380A, “1-Thiocarbamoylmethylpyrrolidine-2-thione, medical compositions of, and anti-hypoxic and nootropic use thereof” (priority 1988, dated 1989).

Tests used:
rats = test: Learning speed and performing of electrodefensive conditioned reflex of avoidance; type: in vivo, rats (nondescript male)
Source text: The study of the compound according to the present invention for the speed of learning and performing the produced conditioned reflux was effected in experiments on rats using the method of electrodefensive conditioned reflexes of avoidance.
The study of the effect on the learning speed and fulfilment of the elaborated conditioned reflex was effected on 40 nondescript male rats with a mass of 150170 g (4 groups of 10 rats in each) by the method of electrodefensive conditioned reflexes. Conditioned reflexes were trained in all rats for ringing used as a conditional irritation signal supported by a non-conditional irritating agent--electric current (40-50 V) supplied to an electrified floor of a conditioned-reflex chamber. As the criterion for the elaboration of the conditioned reflex the rat's jump onto a stand in response to switching-on of a bell during the first 10 seconds after the beginning of the sound was assumed.
All rats, against the background of elaboration of conditioned reflexes, were administered over 3 weeks (5 times a week) with: the first group--the compound according to the present invention in the dose of 250 mg/kg; the second and third group--pyracetam in the doses of 500 and 1,000 mg/kg; and the fourth group--control--isotonic solution of sodium chloride. The administration was effected intraperiotoneally 24 hours before the experiment.

rats' cerebral cortex = test: Acute repeating anoxia (asphyxial hypoxia): electrical activity of the cerebral cortex of rats; type: in vivo
Experimental: The studies were conducted on a model of an acute repeating anoxia.
The studies were carried out in experiments on rats with a mass of 180-200 g with nichrome electrodes in the brain (cerebral) cortex; after tracheostomy the animals were connected to the artificial-breathing apparatus. Anoxia was induced by repeatedly switching-off the breathing for 90, 120, 150 and 180 seconds with 10-minutes' intervals therebetween. Electrocardiogram and electrocorticogram were recorded. 53 rats altogether were used in the experiments. The antihypoxic activity of the compound according to the present invention in comparison with pyracetam was assessed by the following parameters:
I--time till the disappearance of a cortex electrical activity after discontinuation of oxygen supply;
II--time till the appearance of an electrocorticogram after renewal of breathing;
III--total time of electrical "silence" of the cortex
for each of the successive anoxiae.
The results of the experiments were statistically evaluated using Student's T-criterion.

mice [1] = test: Lifespan of mice under acute hypoxic hypoxia with hypercapnia (sealed chamber); type: in vivo, mice (nondescript white male)
Experimental: (§1) The antihypoxic effect of the compound according to the present invention was studied in comparison with pyracetam on various experimental models of hypoxic states in experiments on mice and rats. The compound according to the present invention and pyracetam were administered intraperitoneally in the form of an aqueous emulsion prepared with Tween-80.
Tests were carried out on a model of an acute hypoxic hypoxia with hypercapnia.
The tests were conducted using 540 nondescript while male mice with a mass of 20-22 g. Each mouse was separately placed into a sealed chamber (with the capacity of 250 ml) 60 minutes after administration of the compound according to the present invention in the doses of 50, 100, 250, 500 and 750 mg/kg. The control animals were issued with an isotonic solution of sodium chloride. The antihypoxic activity was assessed by the lifespan of the mice in the sealed chamber (in minutes).

[2] = Convulsions caused by thiosemicarbazide; type: in vivo, white mice
Source text: The interaction of the compound according to the present invention with thiosemicarbazide--a specific antagonist of gamma-aminobutyric acid (GABA) was also studied.
Due to the fact that in functioning of the brain, in particular in processes of learning and memorizing, gammaaminobutyric acid (GABA) plays an important role, the possibility of the presence of a GABA-ergic component in the mechanism of action of the compound according to the present invention was studied. To this end, the ability of the compound according to the present invention to prevent convulsions caused by thiosemicarbazide, which is an inhibitor of an enzyme synthesizing gamma-aminobutyric acid, was studied.
The experiments were carried out on 140 white mice of 18-20 g mass. Thiosemicarbazide was administered hypodermally in the dose of 20 mg/kg. The compound according to the present invention was administered intraperitoneally in the doses of 50, 250 and 500 mg/kg 20 minutes after administration of thiosemicarbazide. For every dose 20 mice were used. The presence of the anticonvulsion activity was determined by the change of the latent period of occurrence of convulsions and by extension of the period of death of the animals. The experiments were carried out in comparison with pyracetam.

mice [3] = test: Acute hypobaric hypoxia: height ceiling for mice (Hmax); type: in vivo, mice (male, tetrahybrids)
Experimental: as §1
The studies were carried out on a model of an acute hypobaric hypoxia.
An acute […] hypoxia was modelled in a flow-type barometric chamber at an ambient temperature of 17°-20° C. with absorption of carbon dioxide and water.
The test animals (male mice, tetrahybrids) with a mass of 15-22 g of the same generation were "lifted" (under simulation conditions) at the mean speed of 50 m/sec to the height of 11,000 m at which the lifespan (in minutes) for the same series of experiments was evaluated. Furthermore, the mice were discretely lifted at the same speed to the height of 10,000 m where they stayed for 1 minute and then to the height of 11,000 m, where they again were kept for 1 minute and so on, till their death for the determination of the height "ceiling", The animals' death was adjudicated by the occurrence of an agonal breathing against the background of convulsions. The total number of mice employed in the experiments was 200.
As the comparison preparation pracetam was used. The compound according to the present invention and pyracetam were administered one hour before the "lift".

mice [4] = test: Acute histotoxic hypoxia (sodium nitroprusside): lifespan of mice; type: in vivo
Experimental: as §1
The studies were carried out using a model of an acute histotoxic hypoxia.
An acute histotoxic hypoxia was induced by way of a subcutaneous injection of sodium nitroprusside in the dose of 20 mg/kg. This mode of administration results in a 100% death of mice in 15-25 minutes after administration of the preparation. The lifespan of the mice was adjudicated after administration of sodium nitroprusside against the background of the test compounds (the compound according to the present invention and pyracetam) which was recorded by the arrest of breathing and heart. In this series of experiments 40 animals altogether were used.

[5] = 1st anoxia, 90 seconds, 250 mg/kg

Compound: NC(=S)CN1CCCC1=S [Compound of the present invention, 1-thiocarbamylmethylpyrrolidine-2-thione]
- acceleration of elaboration and fixation of a conditioned reflex (rats; 250 mg/kg): about 2 times
- combinations of conditional and non-conditional irritation agents after which the reflex is fixed (rats; 250 mg/kg): 49-65 combinations
- lowering of the latent period of the conditioned reflex as compared to the control (rats; 250 mg/kg): more than 2 times
- latent period of the conditioned reflex of avoidance (rats; 250 mg/kg, control 2.14±0.71 s): 0.87 ± 0.32 s
- effective dose (learning and performing of conditioned response of avoidance in rats) (rats; rats): 250 mg/kg
- Number of animals with retained electrocorticogram after the 1st anoxia (rats' cerebral cortex; 250 mg/kg): 44.0%
- time of recovery of the functional capacity of the brain (rats' cerebral cortex; 250 mg/kg): considerably reduced
- extension of the time till disappearance of an electrocorticogram (rats' cerebral cortex; 250 mg/kg, especially first and second anoxiae): ~2 times
- I--time till the disappearance of a cortex electrical activity (rats' cerebral cortex; [5]): 84.3 ± 1.3 s
- II--time till the appearance of an electrocorticogram after renewal of breathing (rats' cerebral cortex; [5]): 3.7 ± 1.5 s
- III--total time of electrical "silence" of the cortex (rats' cerebral cortex; [5]): 8.9 ± 3.5 s
- recovery of electrical activity of the brain after the 4th anoxia, effectiveness versus pyracetam (rats' cerebral cortex; versus pyracetam): 7 times
- retention of the electrocorticogram after the first 90-seconds' anoxia, superiority to pyracetam (rats' cerebral cortex; versus pyracetam 1.000 mg/kg): 3 times
- lifespan of mice under acute hypoxic hypoxia (mice [1]; 100 mg/kg i.p.): 56.3 min
- lifespan of mice under acute hypoxic hypoxia (mice [1]; 250 mg/kg i.p.): 60.3 min
- lifespan of mice under acute hypoxic hypoxia (mice [1]; 500 mg/kg i.p.): 95.2 min
- extension of mice lifespan as compared to the control (mice [1]; 750 mg/kg): 4 times
- increase of mice lifespan as compared to the control (mice [1]; 750 mg/kg): 324.5%
- lifespan of mice under acute hypoxic hypoxia (mice [1]; 750 mg/kg i.p.): 119.2 min
- minimal effective dose (mice [1]; Mus musculus, ip, read-out: dose beginning with which resistance to acute oxygen insufficiency is enhanced and lifespan extended): 100 mg/kg
- Latent period of convulsion occurrence ([2]; 50 mg/kg): 59 (51.5-66.5) min
- Time period after which animals die ([2]; 50 mg/kg): 76 (64-88) min
- Latent period of convulsion occurrence ([2]; 250 mg/kg): 82.6 (76.I-89.I) min
- Time period after which animals die ([2]; 250 mg/kg): 100.8 min
- Latent period of convulsion occurrence ([2]; 500 mg/kg): 80 (75.6-86.4) min
- Time period after which animals die ([2]; 500 mg/kg): 105 (95-115) min
- extension of the latent period of occurrence of convulsions as compared to the control ([2]; 250 and 500 mg/kg i.p.): 25-30%
- extension of the period of death occurrence as compared to the control ([2]; 250 and 500 mg/kg i.p.): 45-50%
- height ceiling for mice (Hmax) (mice [3]; 250 mg/kg): 14.0 ± 0.707 thous. m
- elevation of the height ceiling as compared to the control and pyracetam (mice [3]; 500 mg/kg): 4,000 m
- height ceiling for mice (Hmax) (mice [3]; 500 mg/kg): 15.57 ± 0.85 thous. m
- lifespan of mice at an acute histotoxic hypoxia (mice [4]; 250 mg/kg): 24.2 ± 2.46 min
- lifespan of mice at an acute histotoxic hypoxia, % (control = 100%) (mice [4]; 250 mg/kg): 124.1 ± 12.6%
- lifespan of mice at an acute histotoxic hypoxia (mice [4]; 500 mg/kg): 32.2 ± 4.95 min
- lifespan of mice at an acute histotoxic hypoxia, % (control = 100%) (mice [4]; 500 mg/kg): 165.5 ± 25.4%
- superiority to pyracetam in effectiveness (mice [4]; 500 mg/kg versus pyracetam 500 and 1,000 mg/kg): 1.5 times
